Measured values taken from patent publication EP4570802A1, “SALT TYPE AND CRYSTAL FORM OF BENZAZEPINE FUSED RING COMPOUND AND USE THEREOF” (SHANGHAI JEYOU PHARMACEUTICAL CO., LTD., priority 2022, dated 2024).
Values after ≈ are worked out from the molar mass of the structure shown. Structures can show the parent of a compound that is named as a salt. Where two headings read alike, the source gives them in different places.

Legend:
Assay type in all cases: physicochemical
[1] = Solubility test in biological media (dynamic solubility in FaSSIF, FeSSIF, FaSSGF; pH of the 24-hour supernatant; XRPD of remaining solid); settings: for Final pH: 24-hour supernatant; for Solubility (mg/mL) 0.5 h: 30 min; for Solubility (mg/mL) 2h: 120 min; for Solubility (mg/mL) 24 h: 1440 min; for XRPD for remaining solid: remaining solid after 24 hours; for solubility at 0.5 h: read-out: Solubility (mg/mL) 0.5 h; for solubility at 2 h: read-out: Solubility (mg/mL) 2h; for solubility at 24 h: read-out: Solubility (mg/mL) 24 h
Protocol: Samples of different crystal forms were added to biological media and shaken at a constant temperature of 37°C for 24 hours, followed by sampling at 0.5 hours, 2 hours, and 24 hours, respectively, and the sampled solution was filtered using a 0.22 µm hydrophilic filter membrane. Some of the samples with higher concentrations were appropriately diluted with a diluent, and the signal peak area of the solution was measured by HPLC. Finally, the concentration of the compound in the solution was calculated based on the peak area, the HPLC standard curve of the starting material, and the dilution factor. In addition, the 24-hour supernatant was tested for pH, and the remaining solid was subjected to XRPD testing.

[2] = Stability study (solid state, XRPD characterization after 7 days and 15 days); settings: for Results after 7 days: XRPD characterization after 7 days; for Results after 15 days: XRPD characterization after 15 days
Protocol: Approximately 20 mg of sample was weighed into a weighing bottle and exposed to high temperature (60°C), high humidity (25°C/92.5% RH), light (25°C/4500 Lux), and accelerated (40°C/75% RH) conditions, followed by sampling for XRPD characterization after 7 days and 15 days.
Samples were taken for XRPD characterization after 7 days and 15 days. 62 to 65. […]

[3] = Dynamic vapor sorption analysis (DVS)
Protocol: Dynamic vapor sorption analysis was performed using DVS Intrinsic (SMS, UK). The test was performed in gradient mode with a humidity change of 50%-95%-0%-50%, and 10% humidity change per gradient in the range of 0% to 90%. The gradient endpoint was determined by dm/dt, and was defined as when dm/dt was less than 0.002% and maintained for 10 minutes. After the test was completed, the sample was analyzed by XRPD to confirm whether the solid morphology had changed.

[4] = FaSSGF, listed as Crystal form A of maleate
[5] = FaSSGF, pH 1.6, 37°C, listed as Crystal form A of maleate
[6] = FaSSIF, listed as Crystal form A of maleate
[7] = FaSSIF, pH 6.5, 37°C, listed as Crystal form A of maleate
[8] = FeSSIF, listed as Crystal form A of maleate
[9] = FeSSIF, pH 5.0-5.1, 37°C, listed as Crystal form A of maleate
[10] = FaSSGF, listed as Crystal form C of fumarate
[11] = FaSSIF, listed as Crystal form C of fumarate
[12] = FeSSIF, listed as Crystal form C of fumarate
[13] = FaSSGF, listed as Crystal form N
[14] = FaSSGF, pH 1.6, 37°C, listed as Crystal form N
[15] = FaSSIF, listed as Crystal form N
[16] = FaSSIF, pH 6.5, 37°C, listed as Crystal form N
[17] = FeSSIF, listed as Crystal form N
[18] = FeSSIF, pH 5.0-5.1, 37°C, listed as Crystal form N
[19] = Water, listed as Crystal form N
[20] = FaSSGF, listed as Crystal form S
[21] = FaSSGF, pH 1.6, 37°C, listed as Crystal form S
[22] = FaSSIF, listed as Crystal form S
[23] = FaSSIF, pH 6.5, 37°C, listed as Crystal form S
[24] = FeSSIF, listed as Crystal form S
[25] = FeSSIF, pH 5.0-5.1, 37°C, listed as Crystal form S
[26] = Water, listed as Crystal form S

With O=C(Nc1ccc(C(=O)N2CC[C@@H]3CCN[C@H]3c3cc(Cl)ccc32)cn1)c1ccccc1C(F)(F)F [crystal form A of maleate] the “Final pH” value [1, 4] was 1.7, the “Solubility (mg/mL) 0.5 h” value [1, 5] was 1.44 mg/mL and the “Solubility (mg/mL) 2h” value [1, 5] was 1.43 mg/mL. The “Solubility (mg/mL) 24 h” value [1, 5] was 1.02 mg/mL, the “XRPD for remaining solid” value [1, 4] was “Crystal form A of maleate + new peak” and the “Final pH” value [1, 6] was 6.1. The “Solubility (mg/mL) 0.5 h” value [1, 7] was 0.66 mg/mL, the “Solubility (mg/mL) 2h” value [1, 7] was 0.69 mg/mL and the “Solubility (mg/mL) 24 h” value [1, 7] was 0.57 mg/mL. For the same molecule, the “XRPD for remaining solid” value [1, 6] was “Obvious change”, the “Final pH” value [1, 8] was 5.0 and the “Solubility (mg/mL) 0.5 h” value [1, 9] was 1.08 mg/mL. For the same molecule, the “Solubility (mg/mL) 2h” value [1, 9] was 1.28 mg/mL, the “Solubility (mg/mL) 24 h” value [1, 9] was 0.31 mg/mL and the “XRPD for remaining solid” value [1, 8] was “Obvious change”. The “stability (crystal transformation by XRPD)” value ([2]; high temperature (60°C), high humidity (25°C/92.5% RH), light (25°C/4500 Lux) and accelerated (40°C/75% RH) conditions, 15 days) was “stable”, the weight loss ([3]; DVS, at 0% RH) was 0.24% and the weight gain ([3]; DVS, at 80% RH) was 0.09%. The weight gain ([3]; DVS, at 95% RH) was 0.23%, the hygroscopicity ([3]; conclusion from DVS) was “almost no hygroscopicity” and the “XRPD after DVS testing” value ([3]; solid form after DVS testing) was “no morphological change”.
In the case of O=C(Nc1ccc(C(=O)N2CC[C@@H]3CCN[C@H]3c3cc(Cl)ccc32)cn1)c1ccccc1C(F)(F)F [crystal form C of fumarate], the “Final pH” value [1, 10] was 1.7, the solubility at 0.5 h ([1]; FaSSGF, pH 1.6, 37°C) was 0.65 mg/mL and the solubility at 2 h ([1]; FaSSGF, pH 1.6, 37°C) was 0.7 mg/mL. The solubility at 24 h ([1]; FaSSGF, pH 1.6, 37°C) was 0.71 mg/mL, the “XRPD for remaining solid” value [1, 10] was “Obvious change” and the “Final pH” value [1, 11] was 6.1. It also gave a solubility at 0.5 h ([1]; FaSSIF, pH 6.5, 37°C) of 0.38 mg/mL, a solubility at 2 h ([1]; FaSSIF, pH 6.5, 37°C) of 0.35 mg/mL and a solubility at 24 h ([1]; FaSSIF, pH 6.5, 37°C) of 0.28 mg/mL. The “XRPD for remaining solid” value [1, 11] was “Crystal form C of fumarate + new peak”, the “Final pH” value [1, 12] was 5.0 and the solubility at 0.5 h ([1]; FeSSIF, pH 5.0-5.1, 37°C) was 0.66 mg/mL. The solubility at 2 h ([1]; FeSSIF, pH 5.0-5.1, 37°C) was 0.74 mg/mL, the solubility at 24 h ([1]; FeSSIF, pH 5.0-5.1, 37°C) was 0.68 mg/mL and the “XRPD for remaining solid” value [1, 12] was “Crystal form C of fumarate + new peak”.
With O=C(Nc1ccc(C(=O)N2CC[C@@H]3CCN[C@H]3c3cc(Cl)ccc32)cn1)c1ccccc1C(F)(F)F [crystal form N] the “Final pH” value [1, 13] was 2.0, the “Solubility (mg/mL) 0.5 h” value [1, 14] was over 7.61 mg/mL and the “Solubility (mg/mL) 2h” value [1, 14] was over 7.89 mg/mL. The “Solubility (mg/mL) 24 h” value [1, 14] was over 7.98 mg/mL, the “XRPD for remaining solid” value [1, 13] was “No solid” and the “Final pH” value [1, 15] was 6.5. For the same molecule, the “Solubility (mg/mL) 0.5 h” value [1, 16] was 0.06 mg/mL (≈ 117 µM), the “Solubility (mg/mL) 2h” value [1, 16] was 0.07 mg/mL (≈ 136 µM) and the “Solubility (mg/mL) 24 h” value [1, 16] was 0.08 mg/mL (≈ 155 µM). The “XRPD for remaining solid” value [1, 15] was “Crystal form N”, the “Final pH” value [1, 17] was 5.1 and the “Solubility (mg/mL) 0.5 h” value [1, 18] was 0.80 mg/mL (≈ 1550 µM). For the same molecule, the “Solubility (mg/mL) 2h” value [1, 18] was 0.97 mg/mL (≈ 1880 µM), the “Solubility (mg/mL) 24 h” value [1, 18] was 0.94 mg/mL (≈ 1830 µM) and the “XRPD for remaining solid” value [1, 17] was “Crystal form N”. The “Final pH” value [1, 19] was 7.5, the “Solubility (mg/mL) 2h” value ([1]; Water, 37°C, listed as Crystal form N) was 0.011 mg/mL (≈ 21.4 µM) and the “XRPD for remaining solid” value [1, 19] was “Crystal form N”. The solubility at 0.5 h ([1]; water, 37°C) was 0.004 mg/mL (≈ 7.77 µM), the solubility at 24 h ([1]; water, 37°C) was 0.004 mg/mL (≈ 7.77 µM) and the “Results after 7 days” value ([2]; Accelerated, 40°C/75% RH) was “No change”. The “Results after 15 days” value ([2]; Accelerated, 40°C/75% RH) was “No change”, the “Results after 7 days” value ([2]; High humidity, 25°C/92.5% RH) was “No change” and the “Results after 15 days” value ([2]; High humidity, 25°C/92.5% RH) was “No change”. For the same molecule, the “Results after 7 days” value ([2]; Light, 25°C/4500 Lux) was “No change” and the “Results after 15 days” value ([2]; Light, 25°C/4500 Lux) was “No change”.
For O=C(Nc1ccc(C(=O)N2CC[C@@H]3CCN[C@H]3c3cc(Cl)ccc32)cn1)c1ccccc1C(F)(F)F [crystal form S], the “Final pH” value [1, 20] was 2.0, the “Solubility (mg/mL) 0.5 h” value [1, 21] was over 7.19 mg/mL and the “Solubility (mg/mL) 2h” value [1, 21] was over 7.35 mg/mL. The “Solubility (mg/mL) 24 h” value [1, 21] was 2.15 mg/mL (≈ 4180 µM), the “XRPD for remaining solid” value [1, 20] was “Amorphous*” and the “Final pH” value [1, 22] was 6.5. For the same molecule, the “Solubility (mg/mL) 0.5 h” value [1, 23] was 0.03 mg/mL (≈ 58.3 µM), the “Solubility (mg/mL) 2h” value [1, 23] was 0.04 mg/mL (≈ 77.7 µM) and the “Solubility (mg/mL) 24 h” value [1, 23] was 0.04 mg/mL (≈ 77.7 µM). For the same molecule, the “XRPD for remaining solid” value [1, 22] was “Crystal form S”, the “Final pH” value [1, 24] was 5.1 and the “Solubility (mg/mL) 0.5 h” value [1, 25] was 0.40 mg/mL (≈ 777 µM). For the same molecule, the “Solubility (mg/mL) 2h” value [1, 25] was 0.44 mg/mL (≈ 854 µM), the “Solubility (mg/mL) 24 h” value [1, 25] was 0.43 mg/mL (≈ 835 µM) and the “XRPD for remaining solid” value [1, 24] was “Crystal form S”. The “Final pH” value [1, 26] was 7.4, the “Solubility (mg/mL) 2h” value ([1]; Water, 37°C, listed as Crystal form S) was 0.001 mg/mL (≈ 1.94 µM) and the “XRPD for remaining solid” value [1, 26] was “Crystal form S”. The “Results after 7 days” value ([2]; High temperature, 60°C) was “No change” and the “Results after 15 days” value ([2]; High temperature, 60°C) was “No change”.
